# From patent US20230076820A1, “Substituted Pyrazole Compounds and Methods of Using Them for Treatment of Hyperproliferative Diseases” (Bantam Pharmaceutical, LLC, priority 2016, published 2023)
# Test system: HCT116 cells
# Assay: Total glutathione levels (GSH-Glo), HCT116
# Type: cell-based
# Protocol: Measurement of glutathione levels following treatment using three cell lines: BJAB, HCT116, and normal human lung fibroblasts (NHLF) were maintained in RPMI (Wisent), McCoy’s (Wisent) or FGM-2 (Lonza) medium, respectively. For total glutathione measurement, 5000 cells /well (BJAB or HCT116) or 10,000 cells/well (NHLF) were transferred to clear-bottom 96-well assay plates (Thermo Fisher) in a volume of 50 µL. Plates were incubated overnight at 37° C. in 5% CO2, in an unsealed plastic bag with damp paper. Test compound was serially diluted in medium plus 0.4% DMSO, and 50 µL/well of each dilution was transferred to the assay plate. Assay plates were incubated at 37° C. in 5% CO2 in unsealed plastic bag with damp paper for the indicated time. For total glutathione measurement, GSH-Glo™ reagent (Promega) was prepared by diluting provided Luciferin-NT (1:100), Glutathione S-Transferase (1:100), and DTT (1 mM final) to GSH-Glo™ Reaction buffer, and 100 µL was added to assay plates, followed by 30 min incubation at room temperature, and then 100 µL Luciferin Detection Reagent was added. […] Luminescence was measured using Tecan Infinite 200Pro.
# Effect on Glutathione levels: BJAB and HCT116 cells were maintained in RPMI medium (Wisent) or McCoy’s medium (Wisent), respectively. […] Total glutathione levels were determined according to the procedure described above.
structure (smiles),measurement,setting,value
"CC1=CC(=O)c2ccccc2C1=O [menadione, Menadione]",glutathione levels after treatment,"HCT116, FIG. 3",reduction in glutathione levels
same,glutathione levels in the presence or absence of N-acetyl cysteine,"HCT116, with or without N-acetyl cysteine, FIG. 3",N-acetyl cysteine in the media prevents the reduction of glutathione
